Here are results for two compounds from ChEMBL document CHEMBL4038335, “Neuroactive Steroids. 2. 3α-Hydroxy-3β-methyl-21-(4-cyano-1H-pyrazol-1'-yl)-19-nor-5β-pregnan-20-one (SAGE-217): A Clinical Next Generation Neuroactive Steroid Positive Allosteric Modulator of the (γ-Aminobutyric Acid)A Receptor” (J Med Chem, 2017).

In brackets after ≈: the same amount, converted by molar mass.

Sequence of GABA-A receptor alpha-4/beta-3/delta (P28472 whole entry): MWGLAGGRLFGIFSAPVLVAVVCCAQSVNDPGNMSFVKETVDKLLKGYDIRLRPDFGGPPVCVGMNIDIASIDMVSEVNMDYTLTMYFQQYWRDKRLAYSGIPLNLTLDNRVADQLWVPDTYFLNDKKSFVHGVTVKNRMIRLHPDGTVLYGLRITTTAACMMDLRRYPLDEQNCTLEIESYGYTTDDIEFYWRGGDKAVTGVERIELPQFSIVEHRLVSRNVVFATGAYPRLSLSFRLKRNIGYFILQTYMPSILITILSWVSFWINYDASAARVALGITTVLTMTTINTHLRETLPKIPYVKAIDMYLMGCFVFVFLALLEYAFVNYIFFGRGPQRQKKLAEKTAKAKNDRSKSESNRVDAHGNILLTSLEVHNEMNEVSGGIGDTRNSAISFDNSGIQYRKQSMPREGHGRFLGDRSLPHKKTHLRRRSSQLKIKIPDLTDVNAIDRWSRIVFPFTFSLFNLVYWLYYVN
Sequence of GABA-A receptor alpha-4/beta-3/delta (P48169 whole entry): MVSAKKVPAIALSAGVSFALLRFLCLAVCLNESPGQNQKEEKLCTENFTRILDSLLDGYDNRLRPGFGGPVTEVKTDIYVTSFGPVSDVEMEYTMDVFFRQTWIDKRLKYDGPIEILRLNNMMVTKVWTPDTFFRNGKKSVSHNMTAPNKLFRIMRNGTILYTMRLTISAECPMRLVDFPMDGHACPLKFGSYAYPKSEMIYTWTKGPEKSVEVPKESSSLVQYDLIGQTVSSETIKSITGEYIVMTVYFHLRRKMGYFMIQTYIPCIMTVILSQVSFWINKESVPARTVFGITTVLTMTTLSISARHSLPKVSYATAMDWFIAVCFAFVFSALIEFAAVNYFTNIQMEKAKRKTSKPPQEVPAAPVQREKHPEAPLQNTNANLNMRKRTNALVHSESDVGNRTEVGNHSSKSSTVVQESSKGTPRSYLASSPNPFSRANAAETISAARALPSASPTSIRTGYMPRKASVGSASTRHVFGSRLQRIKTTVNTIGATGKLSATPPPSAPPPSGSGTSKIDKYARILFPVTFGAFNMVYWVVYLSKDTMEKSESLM
Sequence of GABA-A receptor alpha-4/beta-3/delta (Q06278 whole entry, further chain): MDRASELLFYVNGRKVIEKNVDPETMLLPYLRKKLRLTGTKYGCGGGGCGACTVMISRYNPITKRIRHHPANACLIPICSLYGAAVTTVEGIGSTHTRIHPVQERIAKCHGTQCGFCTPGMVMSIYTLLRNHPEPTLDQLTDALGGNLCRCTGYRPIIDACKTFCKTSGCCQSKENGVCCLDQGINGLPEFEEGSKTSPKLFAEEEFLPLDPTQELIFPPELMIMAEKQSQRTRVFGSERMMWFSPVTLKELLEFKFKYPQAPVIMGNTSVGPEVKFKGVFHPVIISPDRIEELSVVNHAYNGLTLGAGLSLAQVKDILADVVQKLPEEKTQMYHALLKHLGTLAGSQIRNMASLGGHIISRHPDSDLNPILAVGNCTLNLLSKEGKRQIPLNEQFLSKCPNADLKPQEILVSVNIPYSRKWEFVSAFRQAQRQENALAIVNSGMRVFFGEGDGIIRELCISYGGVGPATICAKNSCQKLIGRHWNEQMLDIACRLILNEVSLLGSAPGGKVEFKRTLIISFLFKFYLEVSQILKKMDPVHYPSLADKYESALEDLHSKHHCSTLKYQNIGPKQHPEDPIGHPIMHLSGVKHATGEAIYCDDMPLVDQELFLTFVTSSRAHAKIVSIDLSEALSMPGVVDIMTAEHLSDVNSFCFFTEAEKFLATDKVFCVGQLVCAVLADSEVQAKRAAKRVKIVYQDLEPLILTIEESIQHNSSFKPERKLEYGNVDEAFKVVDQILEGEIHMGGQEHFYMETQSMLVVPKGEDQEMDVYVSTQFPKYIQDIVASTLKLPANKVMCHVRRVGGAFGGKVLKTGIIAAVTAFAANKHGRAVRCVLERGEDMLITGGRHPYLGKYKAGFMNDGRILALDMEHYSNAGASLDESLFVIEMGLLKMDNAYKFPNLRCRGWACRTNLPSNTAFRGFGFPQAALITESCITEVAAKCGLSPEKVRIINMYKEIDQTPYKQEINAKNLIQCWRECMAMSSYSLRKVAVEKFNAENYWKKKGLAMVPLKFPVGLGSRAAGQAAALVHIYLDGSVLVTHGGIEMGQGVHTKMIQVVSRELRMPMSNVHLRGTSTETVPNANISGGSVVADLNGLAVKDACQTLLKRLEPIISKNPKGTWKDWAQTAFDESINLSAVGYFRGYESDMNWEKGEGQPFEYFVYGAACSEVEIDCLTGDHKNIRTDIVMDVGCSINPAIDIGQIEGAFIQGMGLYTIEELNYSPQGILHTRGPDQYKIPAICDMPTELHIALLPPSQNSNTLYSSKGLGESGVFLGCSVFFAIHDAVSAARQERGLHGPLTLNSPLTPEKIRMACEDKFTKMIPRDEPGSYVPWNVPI

Test system in the first series: not listed separately
Kind of series: Oral bioavailability in Sprague-Dawley rat at 20 mg/kg measured up to 8 hrs post dose by LC/MS-MS analysis. Format: ADME, organism-based. The note with it: in vivo.
The compound `C[C@@]1(O)CC[C@H]2[C@H](CC[C@@H]3[C@@H]2CC[C@]2(C)[C@@H](C(=O)Cn4nccn4)CC[C@@H]32)C1` had a bioavailability of 25%.
Take `C[C@@]1(O)CC[C@H]2[C@H](CC[C@@H]3[C@@H]2CC[C@]2(C)[C@@H](C(=O)Cn4ccc(C#N)n4)CC[C@@H]32)C1`: the bioavailability was 56%.

Test system in a further series: not listed separately
Kind of series: Thermodynamic aqueous solubility of compound at 10 uM sonicated for 1 min followed by incubation for 1 hr by HPLC-MS/MS. The note with it: buffer; read-out: Therm_solubility. The format is physicochemical.
Consider `C[C@@]1(O)CC[C@H]2[C@H](CC[C@@H]3[C@@H]2CC[C@]2(C)[C@@H](C(=O)Cn4nccn4)CC[C@@H]32)C1`, for which the solubility thermodynamic at 1 h, 10 µM turned out to be 7.3 µM (≈ 2.81 µg/mL).
Same read-out and setting: for `C[C@@]1(O)CC[C@H]2[C@H](CC[C@@H]3[C@@H]2CC[C@]2(C)[C@@H](C(=O)Cn4ccc(C#N)n4)CC[C@@H]32)C1` the value was 1.9 µM (≈ 0.778 µg/mL).

Test system in the next series: not listed separately
Kind of series: Clearance in mouse hepatic microsomes at 10 uM preincubated for 5 mins followed by NADPH addition measured over 60 mins by HPLC-MS/MS analysis. Format: ADME, Microsome. The note with it: liver microsomes.
In the case of `C[C@@]1(O)CC[C@H]2[C@H](CC[C@@H]3[C@@H]2CC[C@]2(C)[C@@H](C(=O)Cn4nccn4)CC[C@@H]32)C1`, the CLhep predicted at 10 µM was 66.7 mL/min/kg.
As to `C[C@@]1(O)CC[C@H]2[C@H](CC[C@@H]3[C@@H]2CC[C@]2(C)[C@@H](C(=O)Cn4ccc(C#N)n4)CC[C@@H]32)C1`, the CLhep predicted at 10 µM was 83.3 mL/min/kg.

Test system in the next series: not listed separately
Kind of series: Ratio of drug level in CD1 mouse brain to plasma at 5 mg/kg, iv measured at 30 mins post dose by LC/MS-MS analysis. Format: ADME, organism-based. The note with it: read-out: BPR.
As to `C[C@@]1(O)CC[C@H]2[C@H](CC[C@@H]3[C@@H]2CC[C@]2(C)[C@@H](C(=O)Cn4nccn4)CC[C@@H]32)C1`, the Kp at 0.5 h worked out at 1.
For `C[C@@]1(O)CC[C@H]2[C@H](CC[C@@H]3[C@@H]2CC[C@]2(C)[C@@H](C(=O)Cn4ccc(C#N)n4)CC[C@@H]32)C1`, the Kp at 0.5 h worked out at 1.4.

A further series has as its target GABA-A receptor alpha-4/beta-3/delta (Homo sapiens, UniProt P28472+P48169+). Kind of series: Positive allosteric modulation of GABAA receptor alpha4beta3delta (unknown origin) expressed in CHO cells assessed as potentiation of GABA-mediated increase in channel current under holding potential at -80 mV at 0.01 to 10 uM preincubated for 30 secs followed by GABA stimulation for 2 secs by manual patch clamp assay relative to GABA. Format: cell-based. The note with it: 2 s.
For `C[C@@]1(O)CC[C@H]2[C@H](CC[C@@H]3[C@@H]2CC[C@]2(C)[C@@H](C(=O)Cn4nccn4)CC[C@@H]32)C1`, the Emax was 579%.
Consider `C[C@@]1(O)CC[C@H]2[C@H](CC[C@@H]3[C@@H]2CC[C@]2(C)[C@@H](C(=O)Cn4ccc(C#N)n4)CC[C@@H]32)C1`, for which the Emax is 330%.

Test system in a further series: not listed separately
Kind of series: Clearance in human hepatic microsomes at 10 uM preincubated for 5 mins followed by NADPH addition measured over 60 mins by HPLC-MS/MS analysis. Format: ADME, Microsome. The note with it: liver microsomes.
On to `C[C@@]1(O)CC[C@H]2[C@H](CC[C@@H]3[C@@H]2CC[C@]2(C)[C@@H](C(=O)Cn4nccn4)CC[C@@H]32)C1`, for which the CLhep predicted at 10 µM was 3.33 mL/min/kg.
For `C[C@@]1(O)CC[C@H]2[C@H](CC[C@@H]3[C@@H]2CC[C@]2(C)[C@@H](C(=O)Cn4ccc(C#N)n4)CC[C@@H]32)C1`, the CLhep predicted at 10 µM is 5 mL/min/kg.

Test system in a further series: not listed separately
Kind of series: Ratio of drug level in Sprague-Dawley rat brain to plasma at 5 mg/kg, iv measured at 30 mins post dose by LC/MS-MS analysis. The note with it: read-out: BPR. The format is ADME, organism-based.
As for `C[C@@]1(O)CC[C@H]2[C@H](CC[C@@H]3[C@@H]2CC[C@]2(C)[C@@H](C(=O)Cn4nccn4)CC[C@@H]32)C1`, the Kp at 0.5 h came out at 1.8.
Same read-out and setting: for `C[C@@]1(O)CC[C@H]2[C@H](CC[C@@H]3[C@@H]2CC[C@]2(C)[C@@H](C(=O)Cn4ccc(C#N)n4)CC[C@@H]32)C1` the value was 1.9.

The target of the next series is Gamma-aminobutyric acid receptor subunit alpha-4/beta3/delta (Homo sapiens, UniProt O14764+P28472+P48169). Kind of series: Positive allosteric modulation of GABAA receptor alpha4beta3delta (unknown origin) expressed in CHO cells assessed as potentiation of GABA-mediated increase in channel current under holding potential at -80 mV preincubated for 30 secs followed by GABA stimulation for 2 secs by manual patch clamp assay. The format is cell-based.
Sequence of Gamma-aminobutyric acid receptor subunit alpha-4/beta3/delta (P28472 whole entry): as the sequence (P28472 whole entry) above
Sequence of Gamma-aminobutyric acid receptor subunit alpha-4/beta3/delta (P48169 whole entry): as the sequence (P48169 whole entry) above
Sequence of Gamma-aminobutyric acid receptor subunit alpha-4/beta3/delta (O14764 whole entry): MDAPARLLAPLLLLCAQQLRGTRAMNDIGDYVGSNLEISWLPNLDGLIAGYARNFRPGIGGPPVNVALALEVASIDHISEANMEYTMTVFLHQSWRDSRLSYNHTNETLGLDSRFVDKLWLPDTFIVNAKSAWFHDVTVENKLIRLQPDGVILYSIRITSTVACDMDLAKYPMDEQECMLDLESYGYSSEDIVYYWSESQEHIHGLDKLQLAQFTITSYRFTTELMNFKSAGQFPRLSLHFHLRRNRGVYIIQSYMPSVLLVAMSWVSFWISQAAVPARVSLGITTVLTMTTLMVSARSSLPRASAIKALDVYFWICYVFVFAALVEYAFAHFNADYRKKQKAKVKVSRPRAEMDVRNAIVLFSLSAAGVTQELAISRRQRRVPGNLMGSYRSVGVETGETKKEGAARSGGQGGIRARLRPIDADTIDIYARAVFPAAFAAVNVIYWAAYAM
Details: not given
Regarding `C[C@@]1(O)CC[C@H]2[C@H](CC[C@@H]3[C@@H]2CC[C@]2(C)[C@@H](C(=O)Cn4nccn4)CC[C@@H]32)C1`, the EC50 stood at 240 nM.
Regarding `C[C@@]1(O)CC[C@H]2[C@H](CC[C@@H]3[C@@H]2CC[C@]2(C)[C@@H](C(=O)Cn4ccc(C#N)n4)CC[C@@H]32)C1`, the EC50 came to 110 nM.

Test system in a further series: not listed separately
Kind of series: Displacement of [35S]TBPS from GABA-A receptor in Sprague-Dawley rat cerebral cortex cell membranes after 90 mins in presence of GABA by liquid scintillation counting.
Details: not given
In the case of `C[C@@]1(O)CC[C@H]2[C@H](CC[C@@H]3[C@@H]2CC[C@]2(C)[C@@H](C(=O)Cn4nccn4)CC[C@@H]32)C1`, the IC50 came out at 11 nM.
As for `C[C@@]1(O)CC[C@H]2[C@H](CC[C@@H]3[C@@H]2CC[C@]2(C)[C@@H](C(=O)Cn4ccc(C#N)n4)CC[C@@H]32)C1`, the IC50 came to 13 nM.

Test system in a further series: not listed separately
Kind of series: Oral bioavailability in CD1 mouse at 20 mg/kg measured up to 8 hrs post dose by LC/MS-MS analysis. Format: ADME, organism-based. The note with it: in vivo.
In turn, `C[C@@]1(O)CC[C@H]2[C@H](CC[C@@H]3[C@@H]2CC[C@]2(C)[C@@H](C(=O)Cn4nccn4)CC[C@@H]32)C1` gave a bioavailability of 17%.
`C[C@@]1(O)CC[C@H]2[C@H](CC[C@@H]3[C@@H]2CC[C@]2(C)[C@@H](C(=O)Cn4ccc(C#N)n4)CC[C@@H]32)C1` came in with a bioavailability of 26%.

The target in the next series is GABA-A receptor; alpha-1/beta-2/gamma-2 (Homo sapiens) (UniProt P14867+P47870+P18507). Kind of series: Positive allosteric modulation of GABAA receptor alpha1beta2gamma2 (unknown origin) expressed in mouse LTK cells assessed as potentiation of GABA-mediated increase in channel current under holding potential at -80 mV at 0.01 to 10 uM preincubated for 30 secs followed by GABA stimulation for 2 secs by automated patch clamp assay relative to GABA. The format is cell-based.
Details: not given
Turning to `C[C@@]1(O)CC[C@H]2[C@H](CC[C@@H]3[C@@H]2CC[C@]2(C)[C@@H](C(=O)Cn4nccn4)CC[C@@H]32)C1`, the Emax was 663%.
As for `C[C@@]1(O)CC[C@H]2[C@H](CC[C@@H]3[C@@H]2CC[C@]2(C)[C@@H](C(=O)Cn4ccc(C#N)n4)CC[C@@H]32)C1`, the Emax was determined as 725%.

Test system in a further series: not listed separately
Kind of series: Lipophilicity, logD of compound at 20 uM at pH 7.4 by HPLC/MS-MS analysis. Format: physicochemical. The note with it: buffer.
With `C[C@@]1(O)CC[C@H]2[C@H](CC[C@@H]3[C@@H]2CC[C@]2(C)[C@@H](C(=O)Cn4ccc(C#N)n4)CC[C@@H]32)C1`, the logD at 20 µM was 4.6.

Test system in the next series: not listed separately
Kind of series: Clearance in rat hepatic microsomes at 10 uM preincubated for 5 mins followed by NADPH addition measured over 60 mins by HPLC-MS/MS analysis. Format: ADME, Microsome. Conditions: liver microsomes.
With `C[C@@]1(O)CC[C@H]2[C@H](CC[C@@H]3[C@@H]2CC[C@]2(C)[C@@H](C(=O)Cn4nccn4)CC[C@@H]32)C1`, the CLhep predicted at 10 µM is 45 mL/min/kg.
Turning to `C[C@@]1(O)CC[C@H]2[C@H](CC[C@@H]3[C@@H]2CC[C@]2(C)[C@@H](C(=O)Cn4ccc(C#N)n4)CC[C@@H]32)C1`, the CLhep predicted at 10 µM is 41.7 mL/min/kg.

The target in another series is T1, GABA-A receptor; alpha-1/beta-2/gamma-2 (Homo sapiens, UniProt P14867+P18507+P47870).
T1 sequence (P14867 whole entry): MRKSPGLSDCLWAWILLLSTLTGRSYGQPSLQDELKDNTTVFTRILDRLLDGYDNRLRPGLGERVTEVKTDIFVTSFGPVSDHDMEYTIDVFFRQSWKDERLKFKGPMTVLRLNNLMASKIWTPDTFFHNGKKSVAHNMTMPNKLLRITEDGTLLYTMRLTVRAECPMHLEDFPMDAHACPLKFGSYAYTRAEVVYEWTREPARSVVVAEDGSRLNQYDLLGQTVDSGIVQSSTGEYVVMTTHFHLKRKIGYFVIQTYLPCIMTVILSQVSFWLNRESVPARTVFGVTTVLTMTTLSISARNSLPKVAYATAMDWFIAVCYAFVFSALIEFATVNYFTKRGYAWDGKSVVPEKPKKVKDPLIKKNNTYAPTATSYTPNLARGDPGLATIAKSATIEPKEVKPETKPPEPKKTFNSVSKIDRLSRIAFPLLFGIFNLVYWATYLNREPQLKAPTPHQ
T1 sequence (P47870 whole entry): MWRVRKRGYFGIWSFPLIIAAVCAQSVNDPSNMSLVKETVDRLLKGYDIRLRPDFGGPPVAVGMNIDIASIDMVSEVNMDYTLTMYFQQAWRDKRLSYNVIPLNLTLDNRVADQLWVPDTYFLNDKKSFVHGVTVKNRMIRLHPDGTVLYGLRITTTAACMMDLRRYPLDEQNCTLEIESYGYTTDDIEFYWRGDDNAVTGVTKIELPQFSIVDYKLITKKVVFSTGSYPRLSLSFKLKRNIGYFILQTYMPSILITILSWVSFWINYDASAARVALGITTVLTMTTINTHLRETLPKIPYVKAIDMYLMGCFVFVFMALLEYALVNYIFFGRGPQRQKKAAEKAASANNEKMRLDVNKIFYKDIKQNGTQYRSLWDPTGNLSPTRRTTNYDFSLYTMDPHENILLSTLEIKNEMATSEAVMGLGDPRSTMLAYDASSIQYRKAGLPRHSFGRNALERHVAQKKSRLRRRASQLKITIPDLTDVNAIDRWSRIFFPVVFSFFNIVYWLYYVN
T1 sequence (P18507 whole entry): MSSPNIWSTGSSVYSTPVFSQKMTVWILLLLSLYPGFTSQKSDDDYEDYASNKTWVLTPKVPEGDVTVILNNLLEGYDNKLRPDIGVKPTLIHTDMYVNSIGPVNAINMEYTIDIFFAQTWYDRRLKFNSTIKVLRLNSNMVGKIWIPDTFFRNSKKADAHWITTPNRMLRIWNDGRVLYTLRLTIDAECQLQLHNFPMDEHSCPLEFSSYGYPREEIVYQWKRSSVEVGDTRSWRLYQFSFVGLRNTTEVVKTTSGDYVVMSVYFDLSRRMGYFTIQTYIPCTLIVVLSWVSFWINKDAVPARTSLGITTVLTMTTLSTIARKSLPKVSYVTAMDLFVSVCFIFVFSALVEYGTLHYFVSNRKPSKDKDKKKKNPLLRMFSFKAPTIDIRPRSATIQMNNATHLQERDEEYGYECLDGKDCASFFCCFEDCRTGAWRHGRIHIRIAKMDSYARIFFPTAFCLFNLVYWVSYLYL
Kind of series: Positive allosteric modulation of GABAA receptor alpha1beta2gamma2 (unknown origin) expressed in mouse LTK cells assessed as potentiation of GABA-mediated increase in channel current under holding potential at -80 mV preincubated for 30 secs followed by GABA stimulation for 2 secs by automated patch clamp assay. Format: cell-based.
Details: not given
Consider `C[C@@]1(O)CC[C@H]2[C@H](CC[C@@H]3[C@@H]2CC[C@]2(C)[C@@H](C(=O)Cn4nccn4)CC[C@@H]32)C1`, for which the EC50 was found to be 125 nM.
The same measure, in the same setting: for `C[C@@]1(O)CC[C@H]2[C@H](CC[C@@H]3[C@@H]2CC[C@]2(C)[C@@H](C(=O)Cn4ccc(C#N)n4)CC[C@@H]32)C1` the value was 225 nM.

Test system in another series: not listed separately
Kind of series: Clearance in Sprague-Dawley rat at 5 mg/kg, iv or 20 mg/kg, po measured up to 8 hrs post dose by LC/MS-MS analysis. The format is ADME, organism-based. The note with it: in vivo.
On to `C[C@@]1(O)CC[C@H]2[C@H](CC[C@@H]3[C@@H]2CC[C@]2(C)[C@@H](C(=O)Cn4ccc(C#N)n4)CC[C@@H]32)C1`, for which the clearance was 25 mL/min/kg.

Test system in another series: not listed separately
Kind of series: Clearance in CD1 mouse at 5 mg/kg, iv or 20 mg/kg, po measured up to 8 hrs post dose by LC/MS-MS analysis. The format is ADME, organism-based. Conditions: in vivo.
`C[C@@]1(O)CC[C@H]2[C@H](CC[C@@H]3[C@@H]2CC[C@]2(C)[C@@H](C(=O)Cn4nccn4)CC[C@@H]32)C1` showed a clearance of 43.3 mL/min/kg.
Same read-out and setting: then `C[C@@]1(O)CC[C@H]2[C@H](CC[C@@H]3[C@@H]2CC[C@]2(C)[C@@H](C(=O)Cn4ccc(C#N)n4)CC[C@@H]32)C1`, with 43.3 mL/min/kg.
